Assay results from patent US20140303127A1, “NEW CYCLOHEXYLAMINE DERIVATIVES HAVING BETA 2 ADRENERGIC AGONIST AND M3 MUSCARINIC ANTAGONIST ACTIVITIES” (ALMIRALL, S.A., priority 2011, published 2014).
Read-outs that look alike come from different tables or passages of the source.

What was measured:
[1] = molecular target: T1, human adrenergic beta2 receptor (Homo sapiens, UniProt P07550); experiment: Human adrenergic β2 receptor binding assay (3H-CGP12177, Sf9 membranes)
T1 construct: purchased Perkin Elmer; host or cells: Sf9 cells (membranes)
Description: Test 1: Human Adrenergic β1 and β2 Receptor Binding Assays
The study of binding to human adrenergic beta1 and beta2 receptors was performed using commercial membranes prepared from Sf9 cells where they are overexpressed (Perkin Elmer). The membrane suspensions (16 μg/well for beta1 and 5 μg/well for beta2) in assay buffer (75 mM Tris/HCl with 12.5 mM MgCl2 and 2 mM EDTA pH=7.4) were incubated with 0.14 or 0.6 nM of 3H-CGP12177 (Amersham) for beta 1 and beta 2 receptors respectively in a final volume of 250 μl, in GFC Multiscreen 96 well plates (Millipore) previously treated with assay buffer containing 0.3% PEI (Sigma). Non specific binding was measured in the presence of 1 μM propanolol. Incubation was maintained for 60 minutes at room temperature and with gentle shaking. The binding reactions were terminated by filtration and washing with 2.5 volumes of Tris/HCl 50 mM pH=7.4. The affinity of each test compound to the receptor was determined by using ten different concentrations ran in duplicate. IC50s were calculated using Activity Base software from IDBS and the four parameters-log equation.

[2] = molecular target: T2, human muscarinic M3 receptor (Homo sapiens, UniProt P20309); experiment: Human muscarinic M3 receptor binding assay ([3H]-NMS, CHO-K1 membranes)
T2 construct: purchased Perkin Elmer; host or cells: CHO-K1 cells (membranes)
T2 sequence (P20309 whole entry): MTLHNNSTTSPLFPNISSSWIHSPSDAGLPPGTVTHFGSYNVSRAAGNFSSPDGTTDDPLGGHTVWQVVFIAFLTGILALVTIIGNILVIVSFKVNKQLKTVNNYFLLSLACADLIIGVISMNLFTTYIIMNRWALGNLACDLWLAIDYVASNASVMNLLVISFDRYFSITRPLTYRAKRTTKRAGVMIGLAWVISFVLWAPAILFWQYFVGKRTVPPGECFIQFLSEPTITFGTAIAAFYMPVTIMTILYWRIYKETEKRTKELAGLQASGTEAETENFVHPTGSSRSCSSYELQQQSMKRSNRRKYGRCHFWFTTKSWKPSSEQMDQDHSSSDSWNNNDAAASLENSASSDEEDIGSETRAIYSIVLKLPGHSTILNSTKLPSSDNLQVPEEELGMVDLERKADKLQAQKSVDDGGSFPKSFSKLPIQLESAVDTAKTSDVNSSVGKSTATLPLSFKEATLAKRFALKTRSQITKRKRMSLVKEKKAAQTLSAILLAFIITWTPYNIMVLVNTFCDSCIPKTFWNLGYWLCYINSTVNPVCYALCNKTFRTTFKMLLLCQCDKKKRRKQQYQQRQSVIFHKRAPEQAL
Description: Test 2: Human Muscarinic M1, M2, M3, M4 and M5 Receptors Binding Assays
The study of binding to human muscarinic M1, M2, M3, M4 and M5 receptors was performed using commercial membranes (Perkin Elmer) prepared from CHO-K1 cells. Radioligand binding experiments were conducted in 96 polypropylene well plates in a total volume of 200 μl. All reagents were dissolved in assay binding buffer (PBS with calcium and magnesium, SIGMA), except compounds that were dissolved in DMSO 100%. Non-specific binding (NSB) was measured in the presence of 1 μM atropine. [3H]-NMS was used as the radioligand at a concentration of 1 nM for M2, M3 and M5 and 0.3 nM for M1 and M4. [3H]-NMS and antagonists were incubated with membranes that express human muscarinic receptors M1, M2, M3, M4 and M5 at concentrations of 8.1, 10, 4.9, 4.5 and 4.9 μg/well, respectively. After an incubation period of two hours with gentle shaking, 150 μl of the reaction mix were transferred to 96 GF/C filter plates (Millipore), previously treated with wash buffer (Tris 50 mM; NaCl 100 mM; pH:7.4), containing 0.05% PEI (Sigma) during one hour. Bound and free [3H]-NMS were separated by rapid vacuum filtration in a manifold from Millipore and washed four times with ice cold wash buffer. After drying 30 min, 30 μl of OPTIPHASE Supermix were added to each well and radioactivity quantified using a Microbeta microplate scintillation counter.
The affinity of each test compound to the receptors was determined by using ten different concentrations ran in duplicate. IC50s were calculated using Activity Base software from IDBS and the four parameters-log equation.

[3] = membranes from Sf9 cells overexpressing human beta2, 0.6 nM 3H-CGP12177, read-out: Binding IC50, β2
[4] = membranes from CHO-K1 cells expressing human M3, 1 nM [3H]-NMS, read-out: Binding IC50, M3

Molecule | IC50 [1, 3] [nM] | IC50 [2, 4] [nM] | IC50 [1] [nM] | IC50 [2] [nM]
CN(CCCn1c(=O)oc2cc(CNC[C@H](O)c3ccc(O)c4[nH]c(=O)ccc34)ccc21)[C@H]1CC[C@H](OC(=O)C(O)(c2cccs2)c2cccs2)CC1 [Example 1, trans-4-[{3-[6-({[(2R)-2-hydroxy-2-(8-hydroxy-2-oxo-1,2-dihydroquinolin-5-yl)ethyl]amino}methyl)-2-oxo-1,3-benzoxazol-3(2H)-yl]propyl}(methyl)amino]cyclohexyl hydroxy(di-2-thienyl)acetate, dihydrofluoride] | 140 | 0.3 |  | 
trans-4-[{3-[6-(2-{[(2R)-2-hydroxy-2-(8-hydroxy-2-oxo-1,2-dihydroquinolin-5-yl)ethyl]amino}ethyl)-2-oxo-1,3-benzoxazol-3(2H)-yl]propyl}(methyl)amino]cyclohexyl hydroxy(di-2-thienyl)acetate dihydrofluoride [Example 19] | 62 | 0.8 |  | 
CN(CCCn1nnc2cc(CNC[C@H](O)c3ccc(O)c4[nH]c(=O)ccc34)ccc21)[C@H]1CC[C@H](OC(=O)[C@](O)(c2cccs2)C2CCCC2)CC1 [Example 17, trans-4-[{3-[5-({[(2R)-2-hydroxy-2-(8-hydroxy-2-oxo-1,2-dihydroquinolin-5-yl)ethyl]amino}methyl)-1H-1,2,3-benzotriazol-1-yl]propyl}(methyl)amino]cyclohexyl (2S)-cyclopentyl(hydroxy)-2-thienylacetate dihydrofluoride] | 13 | 0.6 |  | 
CN(CCCc1nc(-c2ccc(CNC[C@H](O)c3ccc(O)c4[nH]c(=O)ccc34)cc2)no1)[C@H]1CC[C@H](OC(=O)C(O)(c2cccs2)c2cccs2)CC1 [Example 5, trans-4-[(3-{3-[4-({[(2R)-2-hydroxy-2-(8-hydroxy-2-oxo-1,2-dihydroquinolin-5-yl)ethyl]amino}methyl)phenyl]-1,2,4-oxadiazol-5-yl}propyl)(methyl)amino]cyclohexyl hydroxy(di-2-thienyl)acetate dihydrofluoride] | 2.7 | 0.4 |  | 
CN(CCN(C)[C@H]1CC[C@H](OC(=O)C(O)(c2cccs2)c2cccs2)CC1)C(=O)COc1ccc(CNC[C@H](O)c2ccc(O)c3[nH]c(=O)ccc23)cc1 [Example 6, trans-4-[{2-[{[4-({[(2R)-2-hydroxy-2-(8-hydroxy-2-oxo-1,2-dihydroquinolin-5-yl)ethyl]amino}methyl)phenoxy]acetyl}(methyl)amino]ethyl}(methyl)amino]cycloh exyl hydroxy(di-2-thienyl)acetate dihydrofluoride] | 34 | 1.4 |  | 
CN(CCCn1c(=O)sc2cc(CNC[C@H](O)c3ccc(O)c4[nH]c(=O)ccc34)ccc21)[C@H]1CC[C@H](OC(=O)C(O)(c2cccs2)c2cccs2)CC1 [Example 11, trans-4-[{3-[6-({[(2R)-2-hydroxy-2-(8-hydroxy-2-oxo-1,2-dihydroquinolin-5-yl)ethyl]amino}methyl)-2-oxo-1,3-benzothiazol-3(2H)-yl]propyl}(methyl)amino]cyclohexyl hydroxy(di-2-thienyl)acetate dihydrofluoride] | 4.2 | 0.5 |  | 
CN(CCCn1c(=O)oc2cc(CNC[C@H](O)c3ccc(O)c4[nH]c(=O)ccc34)ccc21)[C@H]1CC[C@H](OC(=O)C2(C)c3ccccc3Oc3ccccc32)CC1 [Example 15, trans-4-[{3-[6-({[(2R)-2-hydroxy-2-(8-hydroxy-2-oxo-1,2-dihydroquinolin-5-yl)ethyl]amino}methyl)-2-oxo-1,3-benzoxazol-3(2H)-yl]propyl}(methyl)amino]cyclohexyl 9-methyl-9H-xanthene-9-carboxylate dihydrofluoride] | 1.5 | 1 |  | 
trans-4-{[2-({2-[4-(2-{[(2R)-2-hydroxy-2-(8-hydroxy-2-oxo-1,2-dihydroquinolin-5-yl)ethyl]amino}propyl)phenoxy]acetyl}amino)ethyl]amino}cyclohexyl hydroxy(di-2-thienyl)acetate dihydrofluoride [Example 20] | 3.1 | 3.6 |  | 
trans-4-[{3-[5-({[(2R)-2-hydroxy-2-(5-hydroxy-3-oxo-3,4-dihydro-2H-1,4-benzoxazin-8-yl)ethyl]amino}methyl)-1H-1,2,3-benzotriazol-1-yl]propyl}(methyl)amino]cyclohexyl (2S)-cyclopentyl(hydroxy)-2-thienylacetate dihydrofluoride [Example 18] |  | 0.4 |  | 
CN(CCCn1c(=O)[nH]c2cc(CNC[C@H](O)c3ccc(O)c4[nH]c(=O)ccc34)ccc21)[C@H]1CC[C@H](OC(=O)C(O)(c2cccs2)c2cccs2)CC1 [Example 2, trans-4-[{3-[5-({[(2R)-2-hydroxy-2-(8-hydroxy-2-oxo-1,2-dihydroquinolin-5-yl)ethyl]amino}methyl)-2-oxo-2,3-dihydro-1H-benzimidazol-1-yl]propyl}(methyl)amino]cyclohexyl hydroxy(di-2-thienyl)acetate dihydrofluoride] |  |  | 120 | 0.4
COc1cc(-c2noc(CCCN(C)[C@H]3CC[C@H](OC(=O)C(O)(c4cccs4)c4cccs4)CC3)n2)c(Cl)cc1CNC[C@H](O)c1ccc(O)c2[nH]c(=O)ccc12 [Example 9, trans-4-[(3-{3-[2-chloro-4-({[(2R)-2-hydroxy-2-(8-hydroxy-2-oxo-1,2-dihydroquinolin-5-yl)ethyl]amino}methyl)-5-methoxyphenyl]-1,2,4-oxadiazol-5-yl}propyl)(methyl)amino]cyclohexyl hydroxy(di-2-thienyl)acetate dihydrofluoride] |  |  | 2.2 | 0.2
COc1cc(OCC(=O)N(C)CCN(C)[C@H]2CC[C@H](OC(=O)C(O)(c3cccs3)c3cccs3)CC2)c(Cl)cc1CNC[C@H](O)c1ccc(O)c2[nH]c(=O)ccc12 [Example 10, trans-4-[{2-[{[2-chloro-4-({[(2R)-2-hydroxy-2-(8-hydroxy-2-oxo-1,2-dihydroquinolin-5-yl)ethyl]amino}methyl)-5-methoxyphenoxy]acetyl}(methyl)amino]ethyl}(methyl)amino]cyclohexyl hydroxy(di-2-thienyl)acetate dihydrofluoride] |  |  | 5.7 | 0.4
CN(CCNC(=O)COc1ccc(CNC[C@H](O)c2ccc(O)c3[nH]c(=O)ccc23)cc1)[C@H]1CC[C@H](OC(=O)C(O)(c2cccs2)c2cccs2)CC1 (relative stereo) [Example 8, trans-4-[[2-({[4-({[(2R)-2-hydroxy-2-(8-hydroxy-2-oxo-1,2-dihydroquinolin-5-yl)ethyl]amino}methyl)phenoxy]acetyl}amino)ethyl](methyl)amino]cyclohexyl hydroxy(di-2-thienyl)acetate dihydrofluoride] | 18 | 2.2 |  | 
CN(CCCn1ccc2cc(CNC[C@H](O)c3ccc(O)c4[nH]c(=O)ccc34)ccc21)[C@H]1CC[C@H](OC(=O)C(O)(c2cccs2)c2cccs2)CC1 (relative stereo) [Example 4, trans-4-[{3-[5-({[(2R)-2-hydroxy-2-(8-hydroxy-2-oxo-1,2-dihydroquinolin-5-yl)ethyl]amino}methyl)-1H-indol-1-yl]propyl}(methyl)amino]cyclohexyl hydroxy(di-2-thienyl)acetate dihydrofluoride] | 220 | 0.6 |  | 
